From US20260295053A1, “COMPOUNDS FOR DEGRADATION AND INHIBITION OF KRAS (G12D) PROTEIN” (Shenzhen Ionova Life Science Co., Ltd., priority 2023, published 2026)

Tests used:
[1] = target: T1, KRAS (G12D) (Homo sapiens, UniProt P01116, G12D); experiment: KRAS (G12D) cellular degradation assay in AsPC-1 cells; type: cell-based; settings: 24 hours, antibody fluorescence (Odyssey CLX), DC50 half-maximal degradation concentration
T1 construct: in-cell western with KRAS G12D antibody after 24 h
Procedure, shortened: (§1)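 Proliferation IC50 comes from CellTiter Glo luminescence after 6 days' exposure of AsPC-1 (3,500 cells/well) to 1:3 dilutions from […] to 1.5 nM. KRAS G12D DC50 derives from in-cell immunofluorescence normalised to β-actin after 24 h treatment of near-confluent AsPC-1 cells over the same range.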

[2] = test system: AsPC-1 cells; experiment: AsPC-1 cell proliferation assay (CellTiter Glo); type: cell-based; settings: 6 days
Procedure, shortened: as §1

T1 sequence (P01116 1-188 isoform P01116-2 G12D): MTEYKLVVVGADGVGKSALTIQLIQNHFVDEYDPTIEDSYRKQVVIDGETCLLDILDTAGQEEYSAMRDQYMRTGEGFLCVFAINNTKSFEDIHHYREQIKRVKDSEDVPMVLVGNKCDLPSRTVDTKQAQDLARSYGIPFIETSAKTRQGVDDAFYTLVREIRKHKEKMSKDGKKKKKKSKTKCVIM

Structure (SMILES)	DC50 [1]	IC50 ([2]; Homo sapiens, ASPC1, 144 h)	IC50 [2]
CO[C@@H](C)COc1nc(N2C[C@@H]3C[C@H]2CN3)c2cc(C3CC3)c(-c3c(C)c(F)cc4[nH]ncc34)c(OCc3ccc(-c4cn([C@H](C(=O)N5C[C@H](O)C[C@H]5C(=O)N[C@H](C#Cc5cc(C)cc6[nH]ncc56)CO)C(C)C)nn4)cc3)c2n1 [Example 188, (2S,4R)-1-((2S)-2-(4-(4-(((4-((1S,4S)-2,5-diazabicyclo[2.2.1]heptan-2-yl)-6-cyclopropyl-7-(6-fluoro-5-methyl-1H-indazol-4-yl)-2-((S)-2-methoxypropoxy)quinazolin-8-yl)oxy)methyl)phenyl)-1H-1,2,3-triazol-1-yl)-3-methylbutanoyl)-4-hydroxy-N—((R)-1-hydroxy-4-(6-methyl-1H-indazol-4-yl)but-3-yn-2-yl)pyrrolidine-2-carboxamide]	10 to 100 nM	10 to 100 nM	
CCn1nccc1-c1ccc([C@H](CO)NC(=O)[C@@H]2C[C@@H](O)CN2C(=O)[C@H](C(C)C)n2cc(-c3ccc(COc4c(-c5c(C)c(F)cc6[nH]ncc56)c(C5CC5)cc5c(N(C)[C@@H]6CCNC6)nc(OC[C@H](C)OC)nc45)cc3)nn2)c2c1CC2 [Example 192, (2S,4R)-1-((2S)-2-(4-(4-(((6-cyclopropyl-7-(6-fluoro-5-methyl-1H-indazol-4-yl)-2-((S)-2-methoxypropoxy)-4-(methyl((R)-pyrrolidin-3-yl)amino)quinazolin-8-yl)oxy)methyl)phenyl)-1H-1,2,3-triazol-1-yl)-3-methylbutanoyl)-N—((R)-1-(5-(1-ethyl-1H-pyrazol-5-yl)bicyclo[4.2.0]octa-1(6),2,4-trien-2-yl)-2-hydroxyethyl)-4-hydroxypyrrolidine-2-carboxamide]	< 10 nM	< 10 nM	
CCn1nccc1-c1ccc([C@H](CO)NC(=O)[C@@H]2C[C@@H](O)CN2C(=O)[C@H](C(C)C)n2cc(-c3ccc(COc4c(-c5c(C)c(F)cc6[nH]ncc56)c(C5CC5)cc5c(N(C)[C@H]6CCNC6)nc(OC[C@H](C)OC)nc45)cc3)nn2)c2c1CC2 [Example 169, (2S,4R)-1-((2S)-2-(4-(4-(((6-cyclopropyl-7-(6-fluoro-5-methyl-1H-indazol-4-yl)-2-((S)-2-methoxypropoxy)-4-(methyl((S)-pyrrolidin-3-yl)amino)quinazolin-8-yl)oxy)methyl)phenyl)-1H-1,2,3-triazol-1-yl)-3-methylbutanoyl)-N—((R)-1-(5-(1-ethyl-1H-pyrazol-5-yl)bicyclo[4.2.0]octa-1(6),2,4-trien-2-yl)-2-hydroxyethyl)-4-hydroxypyrrolidine-2-carboxamide]	< 10 nM	< 10 nM	
CCn1nccc1-c1ccc([C@@H](NC(=O)[C@@H]2C[C@@H](O)CN2C(=O)[C@H](C(C)C)n2cc(-c3ccc(COc4c(-c5c(C)c(F)c(F)c6[nH]ncc56)c(C5CC5)cc5c(N6C[C@@H]7C[C@H]6CN7)nc(OC[C@H](C)OC)nc45)cc3)nn2)[C@H](C)O)cc1 [Example 89, (2S,4R)-1-((2S)-2-(4-(4-(((4-((1S,4S)-2,5-diazabicyclo[2.2.1]heptan-2-yl)-6-cyclopropyl-7-(6,7-difluoro-5-methyl-1H-indazol-4-yl)-2-((S)-2-methoxypropoxy)quinazolin-8-yl)oxy)methyl)phenyl)-1H-1,2,3-triazol-1-yl)-3-methylbutanoyl)-N-((1R,2S)-1-(4-(1-ethyl-1H-pyrazol-5-yl)phenyl)-2-hydroxypropyl)-4-hydroxypyrrolidine-2-carboxamide]	< 10 nM	< 10 nM	
Cc1ncsc1-c1ccc([C@H](CO)NC(=O)[C@@H]2C[C@@H](O)CN2C(=O)[C@H](C(C)C)n2cc(-c3ccc(COc4c(-c5c(C)c(F)cc6[nH]ncc56)c(C5CC5)cc5c(N6C[C@@H]7C[C@H]6CN7)nc(OCC6(C(F)F)CC6)nc45)cc3)nn2)cc1 [Example 79, (2S,4R)-1-((2S)-2-(4-(4-(((4-((1S,4S)-2,5-diazabicyclo[2.2.1]heptan-2-yl)-6-cyclopropyl-2-((1-(difluoromethyl)cyclopropyl)methoxy)-7-(6-fluoro-5-methyl-1H-indazol-4-yl)quinazolin-8-yl)oxy)methyl)phenyl)-1H-1,2,3-triazol-1-yl)-3-methylbutanoyl)-4-hydroxy-N—((R)-2-hydroxy-1-(4-(4-methylthiazol-5-yl)phenyl)ethyl)pyrrolidine-2-carboxamide]	< 10 nM	< 10 nM	
CO[C@@H](C)COc1nc(N2C[C@H]3C[C@@H]2CN3)c2cc(C3CC3)c(-c3c(C)c(F)cc4[nH]ncc34)c(OCc3ccc(-c4cn([C@H](C(=O)N5C[C@H](O)C[C@H]5C(=O)N[C@@H](C)c5ccc(-c6scnc6C)cc5)C(C)C)nn4)cc3)c2n1 (single isomer, unassigned) [Example 3A]	< 10 nM		10 to 100 nM
CCn1nccc1-c1ccc([C@H](CO)NC(=O)[C@@H]2C[C@@H](O)CN2C(=O)[C@H](C(C)C)n2cc(-c3ccc(COc4c(-c5c(C)c(F)cc6[nH]ncc56)c(C5CC5)cc5c(N6CC7CCC(C6)N7)nc(OC[C@H](C)OC)nc45)cc3)nn2)cc1 (single isomer, unassigned) [Example 13A]	10 to 100 nM	10 to 100 nM	
CCn1nccc1-c1ccc([C@H](CO)NC(=O)[C@@H]2C[C@@H](O)CN2C(=O)[C@H](C(C)C)n2cc(-c3ccc(COc4c(-c5c(C)c(F)cc6[nH]ncc56)c(C5CC5)cc5c(N6C[C@@H]7C[C@H]6CN7)nc(OCC6(C(F)F)CC6)nc45)cc3)nn2)cc1 [Example 53, (2S,4R)-1-((2S)-2-(4-(4-(((4-((1S,4S)-2,5-diazabicyclo[2.2.1]heptan-2-yl)-6-cyclopropyl-2-((1-(difluoromethyl)cyclopropyl)methoxy)-7-(6-fluoro-5-methyl-1H-indazol-4-yl)quinazolin-8-yl)oxy)methyl)phenyl)-1H-1,2,3-triazol-1-yl)-3-methylbutanoyl)-N—((R)-1-(4-(1-ethyl-1H-pyrazol-5-yl)phenyl)-2-hydroxyethyl)-4-hydroxypyrrolidine-2-carboxamide]	< 10 nM	< 10 nM	
CCn1nccc1-c1ccc([C@H](CO)NC(=O)[C@@H]2C[C@@H](O)CN2C(=O)[C@H](C(C)C)n2cc(-c3ccc(COc4c(-c5c(C)c(F)cc6[nH]ncc56)c(C5CCC5)cc5c(N6C[C@@H]7C[C@H]6CN7)nc(OC[C@H](C)OC)nc45)cc3)nn2)cc1 [Example 68, (2S,4R)-1-((2S)-2-(4-(4-(((4-((1S,4S)-2,5-diazabicyclo[2.2.1]heptan-2-yl)-6-cyclobutyl-7-(6-fluoro-5-methyl-1H-indazol-4-yl)-2-((S)-2-methoxypropoxy)quinazolin-8-yl)oxy)methyl)phenyl)-1H-1,2,3-triazol-1-yl)-3-methylbutanoyl)-N—((R)-1-(4-(1-ethyl-1H-pyrazol-5-yl)phenyl)-2-hydroxyethyl)-4-hydroxypyrrolidine-2-carboxamide]	< 10 nM	< 10 nM	
CCn1nccc1-c1ccc([C@H](CO)NC(=O)[C@@H]2C[C@@H](O)CN2C(=O)[C@H](C(C)C)n2cc(-c3ccc(COc4c(-c5c(C)c(F)cc6[nH]ncc56)c(C5CC5)cc5c(N6C[C@H]7C[C@@H]6CN7)nc(OC[C@H](C)OC)nc45)cc3)nn2)cc1 (single isomer, unassigned) [Example 1B]	> 1000 nM		> 1000 nM
CCn1nccc1-c1ccc([C@H](CO)NC(=O)[C@@H]2C[C@@H](O)CN2C(=O)[C@H](C(C)C)n2cc(-c3ccc(COc4c(-c5c(C)c(F)cc6[nH]ncc56)c(C5CC5)cc5c(N6C[C@@H]7C[C@H]6CN7)nc(OCC(F)(F)COC)nc45)cc3)nn2)cc1 [Example 47, (2S,4R)-1-((2S)-2-(4-(4-(((4-((1S,4S)-2,5-diazabicyclo[2.2.1]heptan-2-yl)-6-cyclopropyl-2-(2,2-difluoro-3-methoxypropoxy)-7-(6-fluoro-5-methyl-1H-indazol-4-yl)quinazolin-8-yl)oxy)methyl)phenyl)-1H-1,2,3-triazol-1-yl)-3-methylbutanoyl)-N—((R)-1-(4-(1-ethyl-1H-pyrazol-5-yl)phenyl)-2-hydroxyethyl)-4-hydroxypyrrolidine-2-carboxamide]	< 10 nM	< 10 nM	
CCn1nccc1-c1ccc([C@H](CO)NC(=O)[C@@H]2C[C@@H](O)CN2C(=O)[C@H](C(C)C)n2cc(-c3ccc(COc4c(-c5c(C)c(F)cc6[nH]ncc56)c(C5CC5)cc5c(N6C[C@@H]7C[C@H]6CN7)nc(OCC6(C(F)F)CCOCC6)nc45)cc3)nn2)cc1 [Example 65, (2S,4R)-1-((2S)-2-(4-(4-(((4-((1S,4S)-2,5-diazabicyclo[2.2.1]heptan-2-yl)-6-cyclopropyl-2-((4-(difluoromethyl)tetrahydro-2H-pyran-4-yl)methoxy)-7-(6-fluoro-5-methyl-1H-indazol-4-yl)quinazolin-8-yl)oxy)methyl)phenyl)-1H-1,2,3-triazol-1-yl)-3-methylbutanoyl)-N—((R)-1-(4-(1-ethyl-1H-pyrazol-5-yl)phenyl)-2-hydroxyethyl)-4-hydroxypyrrolidine-2-carboxamide]	< 10 nM	< 10 nM	
CCn1nccc1-c1ccc([C@@H](NC(=O)[C@@H]2C[C@@H](O)CN2C(=O)[C@H](C(C)C)n2cc(-c3ccc(COc4c(-c5c(C)c(F)cc6[nH]ncc56)c(C5CC5)cc5c(N(C)[C@@H]6CCNC6)nc(OC[C@H](C)OC)nc45)cc3)nn2)[C@H](C)O)c2c1CC2 [Example 186, (2S,4R)-1-((2S)-2-(4-(4-(((6-cyclopropyl-7-(6-fluoro-5-methyl-1H-indazol-4-yl)-2-((S)-2-methoxypropoxy)-4-(methyl((R)-pyrrolidin-3-yl)amino)quinazolin-8-yl)oxy)methyl)phenyl)-1H-1,2,3-triazol-1-yl)-3-methylbutanoyl)-N-((1R,2S)-1-(5-(1-ethyl-1H-pyrazol-5-yl)bicyclo[4.2.0]octa-1(6),2,4-trien-2-yl)-2-hydroxypropyl)-4-hydroxypyrrolidine-2-carboxamide]	< 10 nM	< 10 nM	
